# Test results as given in US7792665B2, “Method for designing a compound based on the three dimensional structure of phosphoinositide dependent protein kinase 1 (PDK1)” (Medical Research Council, priority 2002, dated 2010).
# Several values for one entry are separate records, joined by “and”; a condition that tells them apart may be missing. Equal values may be shown once. Where no end group is shown, it is not given here. [ ]: non-standard residue; d: D form. pT = C[C@@H](OP(=O)(O)O)[C@H](N)C(=O)O
# T1: CHK1 (Homo sapiens, UniProt O14757)
# T1 sequence (O14757 1-476): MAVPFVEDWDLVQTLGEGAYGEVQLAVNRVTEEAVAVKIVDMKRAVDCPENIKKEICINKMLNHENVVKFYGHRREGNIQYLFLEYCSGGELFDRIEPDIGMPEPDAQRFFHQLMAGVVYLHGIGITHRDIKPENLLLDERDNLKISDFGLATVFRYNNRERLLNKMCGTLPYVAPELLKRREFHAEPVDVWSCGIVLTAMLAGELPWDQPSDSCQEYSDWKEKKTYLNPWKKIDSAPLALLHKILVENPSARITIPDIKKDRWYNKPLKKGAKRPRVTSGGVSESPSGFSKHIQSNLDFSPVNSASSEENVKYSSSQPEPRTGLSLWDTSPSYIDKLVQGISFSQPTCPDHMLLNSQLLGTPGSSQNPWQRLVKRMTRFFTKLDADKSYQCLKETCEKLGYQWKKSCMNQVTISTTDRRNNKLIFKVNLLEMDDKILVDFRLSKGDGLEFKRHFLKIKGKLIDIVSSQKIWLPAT
# T2: PDK1 (Homo sapiens, UniProt O15530)
# T2 sequence (O15530 1-556): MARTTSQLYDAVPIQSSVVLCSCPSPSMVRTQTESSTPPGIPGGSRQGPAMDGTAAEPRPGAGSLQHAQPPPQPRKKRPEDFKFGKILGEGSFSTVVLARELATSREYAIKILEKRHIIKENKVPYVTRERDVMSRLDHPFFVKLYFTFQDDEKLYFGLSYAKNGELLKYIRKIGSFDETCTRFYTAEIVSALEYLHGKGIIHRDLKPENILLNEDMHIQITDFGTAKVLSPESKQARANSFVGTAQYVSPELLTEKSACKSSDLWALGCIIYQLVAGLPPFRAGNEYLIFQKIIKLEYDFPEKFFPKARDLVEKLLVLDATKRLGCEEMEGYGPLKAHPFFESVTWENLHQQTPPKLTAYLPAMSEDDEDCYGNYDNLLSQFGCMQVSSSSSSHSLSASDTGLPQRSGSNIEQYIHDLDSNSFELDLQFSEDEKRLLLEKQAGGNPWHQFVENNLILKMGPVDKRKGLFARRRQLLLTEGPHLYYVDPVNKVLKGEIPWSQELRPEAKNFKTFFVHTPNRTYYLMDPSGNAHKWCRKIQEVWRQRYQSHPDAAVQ
# T3: wild type PDK1 fused through its N-terminus to glutathione S-transferase (GST-PDK1) (human, UniProt O15530 1-556)
# T3 sequence: T2 sequence (O15530 1-556)
# B1: S6K-pHM, phosphopeptide comprising the hydrophobic motif of S6K1 (peptide)
# peptide: SESANQVFLGF[pT]YVAPSV
# modifications: not fully specified; printed as SESANQVFLGFT*YVAPSV
# B2: S6K-HM, non-phosphorylated peptide comprising the hydrophobic motif of S6K1 (peptide)
# peptide: SESANQVFLGFTYVAPSV
# modifications: also: biotinylated in BiaCore assay
# notes: also called 56K-HM
# Assays:
# [1] = target: S6K-pHM, phosphopeptide comprising the hydrophobic motif of S6K1; test: SPR (BiaCore 3000), biotinylated S6K-pHM on SA chip, GST-PDK1 injected at 2-2150 nM, steady state, apparent Kd
# [2] = target: S6K-pHM, phosphopeptide comprising the hydrophobic motif of S6K1; test: SPR (BiaCore), dissociation phase
# [3] = target: S6K-pHM, phosphopeptide comprising the hydrophobic motif of S6K1; test: SPR (BiaCore), against PIFtide
# [4] = target: S6K-pHM, phosphopeptide comprising the hydrophobic motif of S6K1; test: SPR (BiaCore), rounded value
# [5] = target: DYRK1α (Homo sapiens, UniProt Q13627); test: Kinase panel assay, DYRK1α; format: biochemical; conditions: 1 μM inhibitor, 0.1 mM ATP, average of triplicate
# [6] = target: SAPK2β/p38β2 (Homo sapiens, UniProt Q15759); test: Kinase panel assay, SAPK2β/p38β2; format: biochemical; conditions: 1 μM inhibitor, 0.1 mM ATP, average of triplicate
# [7] = target: PKCα (Homo sapiens, UniProt P17252); test: Kinase panel assay, PKCα; format: biochemical; conditions: 1 μM inhibitor, 0.1 mM ATP, average of triplicate
# [8] = target: MKK1 (Homo sapiens, UniProt Q02750); test: Kinase panel assay, MKK1; format: biochemical; conditions: 1 μM inhibitor, 0.1 mM ATP, average of triplicate
# [9] = target: NEK6 (Homo sapiens, UniProt Q9HC98); test: Kinase panel assay, NEK6; format: biochemical; conditions: 1 μM inhibitor, 0.1 mM ATP, average of triplicate
# [10] = target: SAPK4/p38δ (Homo sapiens, UniProt O15264); test: Kinase panel assay, SAPK4/p38δ; format: biochemical; conditions: 1 μM inhibitor, 0.1 mM ATP, average of triplicate
# [11] = test system: CK1; test: Kinase panel assay, CK1; format: biochemical; conditions: 1 μM inhibitor, 0.1 mM ATP, average of triplicate
# [12] = target: T1, CHK1; test: Kinase panel assay, CHK1; format: biochemical; conditions: 1 μM inhibitor, 0.1 mM ATP, average of triplicate
# [13] = target: JNKSAPK1c (Homo sapiens, UniProt P45983); test: Kinase panel assay, JNKSAPK1c; format: biochemical; conditions: 1 μM inhibitor, 0.1 mM ATP, average of triplicate
# [14] = target: Lck (Homo sapiens, UniProt P06239); test: Kinase panel assay, Lck; format: biochemical; conditions: 1 μM inhibitor, 0.1 mM ATP, average of triplicate
# [15] = target: MSK1 (Homo sapiens, UniProt O75582); test: Kinase panel assay, MSK1; format: biochemical; conditions: 1 μM inhibitor, 0.1 mM ATP, average of triplicate
# [16] = target: CSK (Homo sapiens, UniProt P41240); test: Kinase panel assay, CSK; format: biochemical; conditions: 1 μM inhibitor, 0.1 mM ATP, average of triplicate
# [17] = target: PRAK (Homo sapiens, UniProt Q8IW41); test: Kinase panel assay, PRAK; format: biochemical; conditions: 1 μM inhibitor, 0.1 mM ATP, average of triplicate
# [18] = target: SGK1 (Homo sapiens, UniProt O00141); test: Kinase panel assay, SGK1; format: biochemical; conditions: 1 μM inhibitor, 0.1 mM ATP, average of triplicate
# [19] = target: ROCK-II (Homo sapiens, UniProt O75116); test: Kinase panel assay, ROCK-II; format: biochemical; conditions: 1 μM inhibitor, 0.1 mM ATP, average of triplicate
# [20] = target: GSK3β (Homo sapiens, UniProt P49841); test: Kinase panel assay, GSK3β; format: biochemical; conditions: 1 μM inhibitor, 0.1 mM ATP, average of triplicate
# [21] = test system: AMPK; test: Kinase panel assay, AMPK; format: biochemical; conditions: 1 μM inhibitor, 0.1 mM ATP, average of triplicate
# Protocol: (§1) Other protein kinases employed in Table 5, were assayed as described previously.
# [22] = target: S6K1 (Homo sapiens, UniProt P23443); test: Kinase panel assay, S6K1; format: biochemical; conditions: 1 μM inhibitor, 0.1 mM ATP, average of triplicate
# [23] = target: PKA (Homo sapiens, UniProt P17612); test: Kinase panel assay, PKA; format: biochemical; conditions: 1 μM inhibitor, 0.1 mM ATP, average of triplicate
# [24] = target: T1, CHK1; conditions: literature [20]; cited from earlier work
# [25] = target: PKBΔPH (Homo sapiens, UniProt P31749); test: biochemical; conditions: read-out: percentage of kinase activity compared to control incubations, PKBΔPH
# Protocol: as §1
# [26] = target: SAPK2α/p38 (Homo sapiens, UniProt Q16539); test: Kinase panel assay, SAPK2α/p38; format: biochemical; conditions: 1 μM inhibitor, 0.1 mM ATP, average of triplicate
# [27] = target: T2, PDK1; test: PDK1 protein kinase assay with PDK1tide substrate and [γ-32P]ATP; format: biochemical; conditions: 1 μM inhibitor, 0.1 mM ATP, average of triplicate
# Protocol: as §1
# A structure-based sequence alignment of known kinase structures was obtained from, which was used to validate the sequence-based sequence alignment (Table 5).
# [28] = target: T2, PDK1; conditions: literature [21]; cited from earlier work
# [29] = target: MAPKAP-K1a (Homo sapiens, UniProt Q15418); test: Kinase panel assay, MAPKAP-K1a; format: biochemical; conditions: 1 μM inhibitor, 0.1 mM ATP, average of triplicate
# [30] = target: MAPKAP-K2 (Homo sapiens, UniProt P49137); test: Kinase panel assay, MAPKAP-K2; format: biochemical; conditions: 1 μM inhibitor, 0.1 mM ATP, average of triplicate
# [31] = target: CK2 (Homo sapiens, UniProt P68400); test: Kinase panel assay, CK2; format: biochemical; conditions: 1 μM inhibitor, 0.1 mM ATP, average of triplicate
# [32] = target: PHOS.KINASE (Oryctolagus cuniculus, UniProt P00518); test: Kinase panel assay, phosphorylase kinase; format: biochemical; conditions: 1 μM inhibitor, 0.1 mM ATP, average of triplicate
# [33] = target: S6K-pHM, phosphopeptide comprising the hydrophobic motif of S6K1; test: SPR (BiaCore), against wild type PDK1
# [34] = target: S6K-pHM, phosphopeptide comprising the hydrophobic motif of S6K1; test: SPR (BiaCore), maximal response obtained empirically
# [35] = target: T3, wild type PDK1 fused through its …; test: cell-based or functional assay
# [36] = target: GST-PDK1[K76A] (human), O15530; test: cell-based or functional assay
# [37] = target: GST-PDK1[Q150A] (human), O15530; test: cell-based or functional assay
# [38] = target: T3, wild type PDK1 fused through its …; test: SPR (BiaCore), biotinylated peptide on SA chip
# Protocol: Binding was analysed in a BiaCore 3000 system (BiaCore AB, Stevenage, UK). […] 30 μl of wild type or the indicated mutant GST-PDK1 were injected at a flow rate of 30 μl/min, in buffer HBS-P (10 mM HEPES pH 7.4, 0.15M NaCl, 0.005% (by vol) polysorbate-20) supplemented with 1 mM DTT. […] Steady state binding was determined at each concentration. Dissociation of PDK1 from the phospho-peptide was monitored over a 1 min period. Regeneration of the sensor chip surface was performed with 10 μl injections of 0.05% SDS.
# Sequence of MSK1 (O75582 whole entry): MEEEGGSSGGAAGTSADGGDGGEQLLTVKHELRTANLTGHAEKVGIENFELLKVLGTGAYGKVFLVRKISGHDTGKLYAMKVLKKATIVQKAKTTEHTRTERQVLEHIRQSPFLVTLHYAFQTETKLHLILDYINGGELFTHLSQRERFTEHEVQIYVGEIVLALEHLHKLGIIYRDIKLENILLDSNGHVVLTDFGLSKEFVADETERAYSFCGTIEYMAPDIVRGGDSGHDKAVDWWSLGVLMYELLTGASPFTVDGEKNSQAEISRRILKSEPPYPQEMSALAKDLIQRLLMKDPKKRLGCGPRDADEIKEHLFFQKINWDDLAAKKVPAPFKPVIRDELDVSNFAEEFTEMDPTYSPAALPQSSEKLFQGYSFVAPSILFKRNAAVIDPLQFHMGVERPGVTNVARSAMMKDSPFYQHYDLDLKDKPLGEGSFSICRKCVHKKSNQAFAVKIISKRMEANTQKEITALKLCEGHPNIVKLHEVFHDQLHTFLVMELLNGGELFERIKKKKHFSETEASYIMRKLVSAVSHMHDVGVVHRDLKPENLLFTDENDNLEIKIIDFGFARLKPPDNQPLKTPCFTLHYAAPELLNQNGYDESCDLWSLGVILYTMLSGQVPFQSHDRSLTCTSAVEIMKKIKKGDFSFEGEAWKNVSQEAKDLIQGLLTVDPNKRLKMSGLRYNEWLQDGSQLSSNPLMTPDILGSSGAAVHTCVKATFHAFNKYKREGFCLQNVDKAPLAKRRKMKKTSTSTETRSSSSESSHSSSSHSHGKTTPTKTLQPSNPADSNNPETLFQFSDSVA
# Sequence of SGK1 (O00141 whole entry): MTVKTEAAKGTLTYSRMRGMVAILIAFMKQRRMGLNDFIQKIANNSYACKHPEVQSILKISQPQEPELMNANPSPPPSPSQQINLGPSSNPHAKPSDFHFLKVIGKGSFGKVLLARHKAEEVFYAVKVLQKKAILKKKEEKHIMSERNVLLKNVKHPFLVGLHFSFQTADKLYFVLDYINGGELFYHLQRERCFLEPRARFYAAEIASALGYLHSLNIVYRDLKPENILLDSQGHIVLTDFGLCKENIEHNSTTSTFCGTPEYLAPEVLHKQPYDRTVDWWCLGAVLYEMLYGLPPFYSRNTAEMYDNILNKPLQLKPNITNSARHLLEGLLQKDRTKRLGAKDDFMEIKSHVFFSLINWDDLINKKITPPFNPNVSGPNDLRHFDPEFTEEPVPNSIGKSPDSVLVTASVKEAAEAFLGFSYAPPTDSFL
# Sequence of S6K1 (P23443 whole entry): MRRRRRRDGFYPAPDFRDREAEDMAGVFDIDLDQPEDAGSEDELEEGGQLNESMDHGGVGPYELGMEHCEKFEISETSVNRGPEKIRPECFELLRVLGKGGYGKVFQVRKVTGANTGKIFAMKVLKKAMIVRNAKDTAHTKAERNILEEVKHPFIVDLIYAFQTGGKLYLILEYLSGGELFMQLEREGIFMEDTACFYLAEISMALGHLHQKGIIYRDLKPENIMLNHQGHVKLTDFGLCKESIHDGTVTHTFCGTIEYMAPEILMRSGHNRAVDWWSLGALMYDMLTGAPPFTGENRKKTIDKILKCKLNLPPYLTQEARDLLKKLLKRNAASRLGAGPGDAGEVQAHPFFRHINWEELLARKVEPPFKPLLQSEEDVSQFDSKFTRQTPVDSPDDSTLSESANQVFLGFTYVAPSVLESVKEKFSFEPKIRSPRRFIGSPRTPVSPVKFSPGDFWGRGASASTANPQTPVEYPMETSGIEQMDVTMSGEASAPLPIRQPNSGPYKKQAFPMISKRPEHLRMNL
# Sequence of ROCK-II (O75116 whole entry, species assumed): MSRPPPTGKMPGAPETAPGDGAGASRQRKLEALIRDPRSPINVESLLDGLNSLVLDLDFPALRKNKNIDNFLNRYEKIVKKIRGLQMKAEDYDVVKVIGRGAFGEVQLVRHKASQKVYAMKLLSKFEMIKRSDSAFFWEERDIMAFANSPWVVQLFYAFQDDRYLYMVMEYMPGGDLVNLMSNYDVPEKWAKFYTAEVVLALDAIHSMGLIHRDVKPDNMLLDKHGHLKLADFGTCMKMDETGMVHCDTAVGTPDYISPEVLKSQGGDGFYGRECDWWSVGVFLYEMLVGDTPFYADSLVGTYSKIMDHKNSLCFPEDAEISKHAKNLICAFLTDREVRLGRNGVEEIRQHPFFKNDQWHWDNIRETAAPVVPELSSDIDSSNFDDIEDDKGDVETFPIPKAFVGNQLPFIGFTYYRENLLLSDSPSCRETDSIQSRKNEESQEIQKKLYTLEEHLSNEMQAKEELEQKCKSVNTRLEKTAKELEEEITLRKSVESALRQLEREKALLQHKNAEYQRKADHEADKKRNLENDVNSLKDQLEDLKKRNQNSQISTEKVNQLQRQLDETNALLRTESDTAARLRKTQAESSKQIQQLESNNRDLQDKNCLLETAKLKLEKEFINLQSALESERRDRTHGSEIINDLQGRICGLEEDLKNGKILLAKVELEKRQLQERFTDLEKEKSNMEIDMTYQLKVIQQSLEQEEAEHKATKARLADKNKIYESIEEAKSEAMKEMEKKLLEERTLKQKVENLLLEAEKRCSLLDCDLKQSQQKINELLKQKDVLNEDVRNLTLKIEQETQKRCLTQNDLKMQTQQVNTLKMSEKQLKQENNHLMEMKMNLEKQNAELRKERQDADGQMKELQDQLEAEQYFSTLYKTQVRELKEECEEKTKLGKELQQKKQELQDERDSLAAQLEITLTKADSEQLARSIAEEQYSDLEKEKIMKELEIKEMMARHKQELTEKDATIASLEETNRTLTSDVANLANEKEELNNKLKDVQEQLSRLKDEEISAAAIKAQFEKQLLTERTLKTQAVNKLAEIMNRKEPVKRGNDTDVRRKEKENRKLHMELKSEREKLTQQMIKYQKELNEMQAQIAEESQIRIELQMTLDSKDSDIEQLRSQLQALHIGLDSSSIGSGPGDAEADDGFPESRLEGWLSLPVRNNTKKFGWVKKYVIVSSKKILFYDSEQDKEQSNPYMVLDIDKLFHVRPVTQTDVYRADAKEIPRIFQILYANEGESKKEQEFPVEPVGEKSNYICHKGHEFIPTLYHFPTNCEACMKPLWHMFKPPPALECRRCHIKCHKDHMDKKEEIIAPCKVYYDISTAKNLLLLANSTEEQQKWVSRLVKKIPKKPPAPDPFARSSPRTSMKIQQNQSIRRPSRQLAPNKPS
# Sequence of CK2 (P68400 whole entry): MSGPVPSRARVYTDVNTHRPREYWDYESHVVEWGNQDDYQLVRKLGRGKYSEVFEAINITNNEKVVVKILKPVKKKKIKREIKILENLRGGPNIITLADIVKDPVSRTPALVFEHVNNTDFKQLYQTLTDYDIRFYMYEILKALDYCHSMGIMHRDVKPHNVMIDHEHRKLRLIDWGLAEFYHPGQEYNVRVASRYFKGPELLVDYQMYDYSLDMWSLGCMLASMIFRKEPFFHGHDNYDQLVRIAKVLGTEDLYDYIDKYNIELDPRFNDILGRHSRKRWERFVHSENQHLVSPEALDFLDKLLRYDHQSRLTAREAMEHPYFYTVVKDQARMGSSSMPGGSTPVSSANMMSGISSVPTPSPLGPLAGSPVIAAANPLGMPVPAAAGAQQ
# Sequence of MKK1 (Q02750 whole entry, species assumed): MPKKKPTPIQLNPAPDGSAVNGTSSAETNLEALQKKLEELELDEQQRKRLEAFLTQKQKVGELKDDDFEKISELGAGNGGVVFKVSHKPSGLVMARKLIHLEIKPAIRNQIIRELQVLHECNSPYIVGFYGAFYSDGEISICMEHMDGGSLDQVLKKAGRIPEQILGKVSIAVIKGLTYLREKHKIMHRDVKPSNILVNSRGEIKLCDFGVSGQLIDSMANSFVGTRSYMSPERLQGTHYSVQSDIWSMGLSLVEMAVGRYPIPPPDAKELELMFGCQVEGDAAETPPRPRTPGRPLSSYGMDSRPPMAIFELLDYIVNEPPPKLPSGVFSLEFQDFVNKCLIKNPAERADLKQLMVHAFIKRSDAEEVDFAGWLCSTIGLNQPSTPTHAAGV
# Sequence of PKBΔPH (P31749 118-480 limits assumed, stated change not applied): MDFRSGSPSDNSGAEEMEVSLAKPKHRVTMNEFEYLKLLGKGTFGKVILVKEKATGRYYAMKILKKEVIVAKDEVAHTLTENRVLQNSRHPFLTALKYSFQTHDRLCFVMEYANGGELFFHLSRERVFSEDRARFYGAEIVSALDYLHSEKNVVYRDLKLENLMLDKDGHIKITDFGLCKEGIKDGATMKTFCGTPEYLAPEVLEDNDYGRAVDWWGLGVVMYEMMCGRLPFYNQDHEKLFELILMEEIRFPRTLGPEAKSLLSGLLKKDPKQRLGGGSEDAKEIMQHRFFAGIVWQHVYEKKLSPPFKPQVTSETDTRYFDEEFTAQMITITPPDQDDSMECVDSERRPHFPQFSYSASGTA
# Sequence of MAPKAP-K1a (Q15418 whole entry, species assumed): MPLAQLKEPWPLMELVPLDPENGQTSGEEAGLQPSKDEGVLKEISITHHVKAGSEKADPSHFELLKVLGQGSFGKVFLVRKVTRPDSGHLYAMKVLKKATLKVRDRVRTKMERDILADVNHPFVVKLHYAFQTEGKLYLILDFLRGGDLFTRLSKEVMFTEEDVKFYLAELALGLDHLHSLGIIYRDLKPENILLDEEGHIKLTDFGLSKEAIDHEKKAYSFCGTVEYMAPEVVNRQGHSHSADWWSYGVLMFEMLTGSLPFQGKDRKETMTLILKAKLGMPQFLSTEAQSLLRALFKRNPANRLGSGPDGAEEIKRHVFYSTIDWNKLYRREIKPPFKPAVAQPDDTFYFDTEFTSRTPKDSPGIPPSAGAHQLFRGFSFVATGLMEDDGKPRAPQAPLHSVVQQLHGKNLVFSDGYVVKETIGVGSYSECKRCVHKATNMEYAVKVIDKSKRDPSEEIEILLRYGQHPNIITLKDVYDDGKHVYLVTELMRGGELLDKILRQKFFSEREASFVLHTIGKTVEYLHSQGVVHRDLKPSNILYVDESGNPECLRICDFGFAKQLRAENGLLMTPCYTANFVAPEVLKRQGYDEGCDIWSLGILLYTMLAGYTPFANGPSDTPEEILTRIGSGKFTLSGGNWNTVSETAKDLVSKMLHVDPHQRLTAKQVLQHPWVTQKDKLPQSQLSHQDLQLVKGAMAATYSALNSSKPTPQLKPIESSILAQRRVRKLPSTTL
molecule,measurement,setting,value
wild type PDK1 fused through its N-terminus to glutathione S-transferase (GST-PDK1) (from UniProt O15530 1-556) (enzyme),Kd,[1],642 nM
same,time taken for 50% dissociation,[2],30 s
same,fold lower affinity than for PIFtide,[3],100 fold
same,Kd,[4],600 nM
"CN[C@@H]1C[C@H]2O[C@@](C)([C@@H]1OC)n1c3ccccc3c3c4c(c5c6ccccc6n2c5c31)C(=O)N[C@H]4O [UCN-01, 7-hydroxyl staurosporine]","percentage of kinase activity compared to control incubations, DYRK1α",[5],15 ± 2%
same,"percentage of kinase activity compared to control incubations, SAPK2β/p38β2",[6],106 ± 4%
same,"percentage of kinase activity compared to control incubations, PKCα",[7],1 ± 0%
same,"percentage of kinase activity compared to control incubations, MKK1",[8],53 ± 1%
same,"percentage of kinase activity compared to control incubations, NEK6",[9],80 ± 7%
same,"percentage of kinase activity compared to control incubations, SAPK4/p38δ",[10],100 ± 7%
same,"percentage of kinase activity compared to control incubations, CK1",[11],96 ± 0%
same,"percentage of kinase activity compared to control incubations, CHK1",[12],1 ± 0%
same,"percentage of kinase activity compared to control incubations, JNKSAPK1c",[13],112 ± 6%
same,"percentage of kinase activity compared to control incubations, Lck",[14],3 ± 1%
same,"percentage of kinase activity compared to control incubations, MSK1",[15],11% and 11 ± 0%
same,"percentage of kinase activity compared to control incubations, CSK",[16],58 ± 3%
same,"percentage of kinase activity compared to control incubations, PRAK",[17],89 ± 4%
same,"percentage of kinase activity compared to control incubations, SGK1",[18],25% and 22 ± 4%
same,"percentage of kinase activity compared to control incubations, ROCK-II",[19],13 ± 2%
same,"percentage of kinase activity compared to control incubations, GSK3β",[20],25 ± 5%
same,"percentage of kinase activity compared to control incubations, AMPK",[21],1 ± 1%
same,"percentage of kinase activity compared to control incubations, S6K1",[22],21 ± 4%
same,"percentage of kinase activity compared to control incubations, PKA",[23],27 ± 2%
same,"inhibition of Chk1, recent reports",[24],low nM range
same,remaining activity at 1 µM,[25],9 ± 1%
same,"percentage of kinase activity compared to control incubations, SAPK2α/p38",[26],107 ± 5%
same,"percentage of kinase activity compared to control incubations, PDK1",[27],0 ± 1%
same,"inhibition of PDK1, recent reports",[28],low nM range
same,"percentage of kinase activity compared to control incubations, MAPKAP-K1a",[29],1 ± 1%
same,"percentage of kinase activity compared to control incubations, MAPKAP-K2",[30],60 ± 1%
same,"percentage of kinase activity compared to control incubations, CK2",[31],102 ± 11%
same,"percentage of kinase activity compared to control incubations, PHOS.KINASE",[32],1 ± 2%
GST-PDK1[T148A] (from UniProt O15530 1-556) (enzyme),Kd,[1],64 nM
same,fold higher affinity than wild type PDK1,[33],10 fold
same,RUmax,[34],435 RU
same,Kd,[4],60 nM
B1,maximal activation of PDK1 activity towards T308tide,[35],5 fold
same,"concentration of S6K-pHM for half maximal activation, against wild type PDK1 (fold higher than wild type PDK1)",[36],3
same,activation of PDK1 activity towards T308tide,[37],2 fold and 3 fold
B2,activation of PDK1 activity towards T308tide,[35],< 2 fold
same,binding result,[38],no binding (tested: 2-2150 nM)
